Here are results for 33 compounds from patent US10266526B2, “Substituted 1,2,3-triazoles as SMYD inhibitors for treating cancer” (EPIZYME, INC., priority 2014, dated 2019).

One may read the IC50 as the concentration that inhibits the measured activity by half.

SMYD3, sequence (Q9H7B4 whole entry): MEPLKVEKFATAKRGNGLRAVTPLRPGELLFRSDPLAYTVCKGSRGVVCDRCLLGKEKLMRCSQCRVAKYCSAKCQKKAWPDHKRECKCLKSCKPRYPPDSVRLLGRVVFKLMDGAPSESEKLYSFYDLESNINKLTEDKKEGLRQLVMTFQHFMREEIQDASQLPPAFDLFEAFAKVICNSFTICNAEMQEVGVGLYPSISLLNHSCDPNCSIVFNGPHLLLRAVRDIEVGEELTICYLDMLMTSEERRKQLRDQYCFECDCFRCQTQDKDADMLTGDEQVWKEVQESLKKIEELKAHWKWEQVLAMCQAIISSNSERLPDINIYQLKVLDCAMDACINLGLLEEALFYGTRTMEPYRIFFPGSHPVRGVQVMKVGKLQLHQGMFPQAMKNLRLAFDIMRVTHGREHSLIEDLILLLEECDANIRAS

The target in the assay is SMYD3 (Homo sapiens (Human), UniProt Q9H7B4). Description: SMYD3 biochemical assay (SMYD3 enzyme assay on MEKK2 protein substrate, 3H-SAM scintillation proximity assay). The settings on record: read-out: SMYD3 Biochem IC50 (μM)*. The source says:
S-adenosylmethionine (SAM), S-adenosylhomocysteine (SAH), Tris, Tween20, dimethylsulfoxide (DMSO), bovine skin gelatin (BSG), and Tris(2-carboxyethyl)phosphine hydrochloride solution (TCEP) were purchased from Sigma-Aldrich at the highest level of purity possible. ^3H-SAM was purchase from American Radiolabeled Chemicals with a specific activity of 80 Ci/mmol. 384-well opaque white OptiPlates and SPA beads (Perkin Elmer, catalog # RPNQ0013) were purchased from PerkinElmer.
N-terminally GST-tagged MEKK2 (MAP3K2) protein corresponding to reference sequence AAF63496.3 was purchased from Life Technologies (catalog # PV4010). This protein was expressed in High Five insect cells and purified to >85% purity. Protein identity was confirmed by MS/MS analysis after proteolytic digestion. The protein sequence used was:
Full-length human SMYD3 isoform 1 (BAB86333) was inserted into a modified pET21b plasmid containing a His6 tag and TEV and SUMO cleavage sites.
E. coli (BL21 codonplus RIL strain, Stratagene) were transformed with plasmid pEPZ553 by mixing competent cells and plasmid DNA and incubating on ice for 30 minutes followed by heat shock at 42° C. for 1 minute and cooling on ice for 2 minutes. Transformed cells were grown and selected on LB agar with 100 μg/mL ampicillin and 17 μg/mL chloramphenicol at 37° C. overnight. A single clone was used to inoculate 200 mL of LB medium with 100 μg/mL ampicillin and 17 μg/mL chloramphenicol and incubated at 37° C. on an orbital shaker at 180 rpm. Once in log growth, the culture was diluted 1:100 into 2 L of LB medium and grown until OD600 was about 0.3 after which the culture was incubated at 15° C. and 160 rpm. Once OD600 reached about 0.4, IPTG was added to a final concentration of 0.1 mM and the cells were grown overnight at 15° C. and 160 rpm. Cells were harvested by centrifugation at 8000 rpm, for 4 minutes at 4° C. and stored at −80° C. for purification.
The column was washed with Buffer B (Buffer A plus 20 mM imidazole) and His-tagged SMYD3 was eluted with Buffer C (Buffer A plus 300 mM imidazole). The His tag, TEV and SUMO cleavage sites were removed generating native SMYD3 by addition of ULP1 protein at a ratio of 1:200 (ULP1:SMYD3). Imidazole was removed by dialysis overnight in Buffer A. The dialyzed solution was applied to a second Nickel column and the native SMYD3 protein was collected from the column flow-through. The flow-through was dialyzed in Buffer D (25 mM Tris, 5% glycerol, 5 mM β-mercaptoethanol, 50 mM NaCl, pH7.8) and ULP1 was removed using a Q sepharose fast flow column.
General Procedure for SMYD3 Enzyme Assays on MEKK2 Protein Substrate
The assays were all performed in a buffer consisting of 25 mM Tris-Cl pH 8.0, 1 mM TCEP, 0.005% BSG, and 0.005% Tween 20, prepared on the day of use. […] DMSO (1 ul) was added to Columns 11, 12, 23, 24, rows A-H for the maximum signal control and 1 ul of SAH, a known product and inhibitor of SMYD3, was added to columns 11, 12, 23, 24, rows I-P for the minimum signal control. A cocktail (40 ul) containing the SMYD3 enzyme was added by Multidrop Combi (Thermo-Fisher). The compounds were allowed to incubate with SMYD3 for 30 min at room temperature, then a cocktail (10 ul) containing SAM and MEKK2 was added to initiate the reaction (final volume=51 ul). […] The assays were stopped by the addition of non-radiolabeled SAM (10 ul) to a final concentration of 100 uM, which dilutes the ^3H-SAM to a level where its incorporation into MEKK2 is no longer detectable. Radiolabeled MEKK2 was detected using a scintillation proximity assay (SPA). 10 uL of a 10 mg/mL solution of SPA beads in 0.5 M citric acid was added and the plates centrifuged at 600 rpm for 1 min to precipitate the radiolabeled MEKK2 onto the SPA beads.
A general note: Scintillation proximity formats need no separation of bound from free tracer.
As to `Cc1cc2[nH]c(C(=O)NC3CCNCC3)cc2o1` [compound 58, 2-methyl-N-(piperidin-4-yl)-4H-furo[3,2-b]pyrrole-5-carboxamide], the IC50 came out at 76.1 µM.
The same measure for `CCc1ncc(C(=O)N[C@H]2CC[C@H](N)CC2)s1` [compound 59, N-((1r,4r)-4-aminocyclohexyl)-2-ethylthiazole-5-carboxamide]: 184 µM.
The same measure for `CCc1ncc(C(=O)NC(c2ccccc2)C2CCNCC2)s1` (stereo not drawn) [compound 60, 2-ethyl-N-(phenyl(piperidin-4-yl)methyl)thiazole-5-carboxamide]: 150 µM; for `CCc1ncc(C(=O)Nc2ccc(CN)cc2)s1` [compound 61, N-(4-(aminomethyl)phenyl)-2-ethylthiazole-5-carboxamide]: 114 µM.
The same measure for `CC(CC(=O)N[C@H]1CC[C@H](N)CC1)C1CC1` (stereo partly drawn) [compound 62, N-((1r,4r)-4-aminocyclohexyl)-3-cyclopropylbutanamide]: 155 µM.
Regarding `CC(CC(=O)NC(c1ccccc1)C1CCNCC1)C1CC1` (stereo not drawn) [compound 63, 3-cyclopropyl-N-(phenyl(piperidin-4-yl)methyl)butanamide], the IC50 is 131 µM.
The same measure for `CC(=O)c1c[nH]c(C(=O)N[C@H]2CC[C@H](N)CC2)c1` [compound 64, 4-acetyl-N-((1r,4r)-4-aminocyclohexyl)-1H-pyrrole-2-carboxamide]: 134 µM.
As to `CC(=O)c1c[nH]c(C(=O)NC2CCNCC2)c1` [compound 65, 4-acetyl-N-(piperidin-4-yl)-1H-pyrrole-2-carboxamide], the half-inhibitory concentration (IC50) was found to be 45.8 µM.
The same measure for `CC(=O)c1c[nH]c(C(=O)Nc2ccc(CN)cc2)c1` [compound 66, 4-acetyl-N-(4-(aminomethyl)phenyl)-1H-pyrrole-2-carboxamide]: 60.9 µM.
`Cn1nc(O)cc1C(=O)N[C@H]1CC[C@H](N)CC1` [compound 67, N-((1r,4r)-4-ammocyclohexyl)-3-hydroxy-1-methyl-1H-pyrazole-5-carboxamide]: the IC50 came to 129 µM.
Turning to `O=C1Cc2cc(C(=O)NC3CCNCC3)cnc2N1` [compound 68, 2-oxo-N-(piperidin-4-yl)-2,3-dihydro-1H-pyrrolo[2,3-b]pyridine-5-carboxamide], the IC50 was determined as 86.1 µM.
The same measure for `Cn1nc(O)cc1C(=O)NC1CCNCC1` [compound 69, 3-hydroxy-1-methyl-N-(piperidin-4-yl)-1H-pyrazole-5-carboxamide]: 19.7 µM; for `N[C@H]1CC[C@H](NC(=O)c2ccc3c(c2)NC(=O)CN3)CC1` [compound 70, N-((1r,4r)-4-aminocyclohexyl)-3-oxo-1,2,3,4-tetrahydroquinoxaline-6-carboxamide]: 77.5 µM; for `N[C@H]1CC[C@H](NC(=O)c2ccc3c(c2)NC(=O)C3)CC1` [compound 71, N-((1r,4r)-4-aminocyclohexyl)-2-oxoindoline-6-carboxamide]: 89.3 µM.
The same measure for `N[C@@H](Cc1ccc(O)cc1)C(=O)N1CCC(NC(=O)c2ccc3c(c2)NC(=O)C3)CC1` [compound 72, N-(1-(L-tyrosyl)piperidin-4-yl)-2-oxoindoline-6-carboxamide]: 35.5 µM.
The same measure for `N[C@H]1CC[C@H](NC(=O)c2ccc3[nH]c(=O)[nH]c3c2)CC1` [compound 73, N-((1r,4r)-4-aminocyclohexyl)-2-oxo-2,3-dihydro-1H-benzo[d]imidazole-5-carboxamide]: 13.7 µM; for `N[C@H]1CC[C@H](NC(=O)c2ccc3c(c2)CCC(=O)N3)CC1` [compound 74, N-((1r,4r)-4-aminocyclohexyl)-2-oxo-1,2,3,4-tetrahydroquinoline-6-carboxamide]: 65.8 µM.
As to `Nc1ccc2cc(C(=O)N[C@H]3CC[C@H](N)CC3)ccc2c1` [compound 75, 6-amino-N-((1r,4r)-4-aminocyclohexyl)-2-naphthamide], the half-inhibitory concentration (IC50) amounted to 62.5 µM.
The same measure for `N[C@H]1CC[C@H](NC(=O)c2ccc3nc(O)ccc3c2)CC1` [compound 76, N-((1r,4r)-4-aminocyclohexyl)-2-hydroxyquinoline-6-carboxamide]: 115 µM; for `CCC(=O)c1c[nH]c(C(=O)NC(c2ccccc2)C2CCNCC2)c1` (stereo not drawn) [compound 77, N-(phenyl(piperidin-4-yl)methyl)-4-propionyl-1H-pyrrole-2-carboxamide]: 10 µM; for `CCS(=O)(=O)C(C)C(=O)N[C@H]1CC[C@H](N)CC1` (stereo partly drawn) [compound 78, N-((1r,4r)-4-aminocyclohexyl)-2-(ethylsulfonyl)propanamide]: 35.2 µM.
The same measure for `CN(C)Cc1ccc(C(=O)N[C@H]2CC[C@H](N)CC2)o1` [compound 79, N-((1r,4r)-4-aminocyclohexyl)-5-((dimethylamino)methyl)furan-2-carboxamide]: 38.9 µM; for `Nc1nc(C(=O)NC(c2ccccc2)C2CCNCC2)co1` (stereo not drawn) [compound 80, 2-amino-N-(phenyl(piperidin-4-yl)methyl)oxazole-4-carboxamide]: 97.1 µM; for `Cc1cc2[nH]c(C(=O)Nc3ccc(CN)cc3)cc2o1` [compound 81, N-(4-(aminomethyl)phenyl)-2-methyl-4H-furo[3,2-b]pyrrole-5-carboxamide]: 25.9 µM.
The same measure for `CN1C(=O)Cc2cc(C(=O)NC3CCN(C(=O)[C@@H](N)Cc4ccc(O)cc4)CC3)ccc21` [compound 82, N-(1-(L-tyrosyl)piperidin-4-yl)-1-methyl-2-oxoindoline-5-carboxamide]: 8.7 µM; for `CN1C(=O)Cc2cc(C(=O)NC3CCN(C(=O)[C@@H](N)Cc4c[nH]c5ccccc45)CC3)ccc21` [compound 83, N-(1-(L-tryptophyl)piperidin-4-yl)-1-methyl-2-oxoindoline-5-carboxamide]: 12.9 µM.
For `CN1C(=O)Cc2cc(C(=O)N[C@H]3CC[C@H](N)CC3)ccc21` [compound 84, N-((1r,4r)-4-aminocyclohexyl)-1-methyl-2-oxoindoline-5-carboxamide], the IC50 came out at 16.7 µM.
The same measure for `COc1cc(C(=O)N[C@H]2CC[C@H](N)CC2)cc2c1OCC(=O)N2` [compound 85, N-((1r,4r)-4-aminocyclohexyl)-8-methoxy-3-oxo-3,4-dihydro-2H-benzo[b][1,4]oxazine-6-carboxamide]: 184 µM; for `CC(NC(=O)c1ccc2c(c1)CC(=O)N2)C1CCN(C(=O)[C@@H](C)N)CC1` (stereo partly drawn) [compound 87, N-(1-(1-(D-alanyl)piperidin-4-yl)ethyl)-2-oxoindoline-5-carboxamide]: 9.37 µM; for `CN1C(=O)Cc2ccc(C(=O)NC3CCN(C(=O)[C@@H](N)Cc4ccc(O)cc4)CC3)cc21` [compound 88, N-(1-(L-tyrosyl)piperidin-4-yl)-1-methyl-2-oxoindoline-6-carboxamide]: 193 µM.
In the case of `N[C@H]1CC[C@H](NC(=O)c2ccc3[nH]c(=O)oc3c2)CC1` [compound 90, N-((1r,4r)-4-aminocyclohexyl)-2-oxo-2,3-dihydrobenzo[d]oxazole-6-carboxamide], the concentration for half-maximal inhibition (IC50) stood at 9.76 µM.
The same measure for `N[C@H]1CC[C@H](NC(=O)c2ccc3c(c2)NC(=O)CC3)CC1` [compound 91, N-((1r,4r)-4-aminocyclohexyl)-2-oxo-1,2,3,4-tetrahydroquinoline-7-carboxamide]: 89.5 µM; for `CC(NC(=O)c1ccc2c(c1)NC(=O)CC2)C1CCN(C(=O)[C@H](C)N)CC1` (stereo partly drawn) [compound 92, N-(1-(1-(L-alanyl)piperidin-4-yl)ethyl)-2-oxo-1,2,3,4-tetrahydroquinoline-7-carboxamide]: 50 µM.
